# Measured values reported in ChEMBL document CHEMBL1201862, “PubChem BioAssay data set” (2004).
# Several values for one entry are separate records, joined by “and”; a condition that tells them apart may be missing. Equal entries are not always repeated. Activity calls are given as the source filed them.
# Experiments:
# Prothrombin = Prothrombin (Homo sapiens, UniProt P00734); assay: Thrombin 1536 HTS Dose Response Confirmation. [Related pubchem assays: 1046 (Thrombin 1536 HTS; hits were confirmed in this assay)]; format: functional
# Coagulation factor XII = target: T1, Coagulation factor XII (Homo sapiens, UniProt P00748); assay: Factor XIIa Dose Response Confirmation from Single Well HTS. [Related pubchem assays (depositor defined):AID701]; format: functional
# T1 sequence (P00748 whole entry): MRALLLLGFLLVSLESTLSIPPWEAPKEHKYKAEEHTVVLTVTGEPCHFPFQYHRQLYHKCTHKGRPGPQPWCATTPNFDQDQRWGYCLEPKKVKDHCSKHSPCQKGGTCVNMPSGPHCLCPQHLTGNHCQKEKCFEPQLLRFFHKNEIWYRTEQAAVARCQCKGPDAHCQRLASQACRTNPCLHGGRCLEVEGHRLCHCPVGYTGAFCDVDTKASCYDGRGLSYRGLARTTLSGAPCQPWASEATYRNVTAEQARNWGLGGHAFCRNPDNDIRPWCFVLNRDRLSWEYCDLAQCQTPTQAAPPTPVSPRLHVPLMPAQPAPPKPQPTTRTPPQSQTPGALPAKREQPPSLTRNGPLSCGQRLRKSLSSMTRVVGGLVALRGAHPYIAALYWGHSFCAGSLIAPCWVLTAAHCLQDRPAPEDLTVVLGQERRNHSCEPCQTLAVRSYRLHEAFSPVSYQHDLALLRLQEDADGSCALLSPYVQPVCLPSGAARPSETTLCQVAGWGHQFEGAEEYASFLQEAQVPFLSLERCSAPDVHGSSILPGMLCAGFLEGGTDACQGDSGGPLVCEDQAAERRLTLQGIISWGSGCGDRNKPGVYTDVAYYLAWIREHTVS
# [1] = Luminescence Cell-Based Dose Retest to Confirm Inhibitors of Cancer Stem Cells. [Related pubchem assays (depositor defined):AID2717, AID2721]; format: functional; settings: Homo sapiens
# T-cell = assay: loss of vesicle association with mouse CD8+ T cells – mouse 2C CD8+ T cells, flow cytometry, dose response (AID 485284); format: functional
# [2] = target: Glyceraldehyde-3-phosphate dehydrogenase (Homo sapiens, UniProt P04406)
# [3] = target: T2, Alkaline phosphatase, tissue-nonspecific isozyme (Homo sapiens, UniProt P05186); assay: potency against alkaline phosphatase TNAP – biochemical, luminescent, dose response, SAR follow-up (AID 1056)
# T2 sequence (P05186 whole entry): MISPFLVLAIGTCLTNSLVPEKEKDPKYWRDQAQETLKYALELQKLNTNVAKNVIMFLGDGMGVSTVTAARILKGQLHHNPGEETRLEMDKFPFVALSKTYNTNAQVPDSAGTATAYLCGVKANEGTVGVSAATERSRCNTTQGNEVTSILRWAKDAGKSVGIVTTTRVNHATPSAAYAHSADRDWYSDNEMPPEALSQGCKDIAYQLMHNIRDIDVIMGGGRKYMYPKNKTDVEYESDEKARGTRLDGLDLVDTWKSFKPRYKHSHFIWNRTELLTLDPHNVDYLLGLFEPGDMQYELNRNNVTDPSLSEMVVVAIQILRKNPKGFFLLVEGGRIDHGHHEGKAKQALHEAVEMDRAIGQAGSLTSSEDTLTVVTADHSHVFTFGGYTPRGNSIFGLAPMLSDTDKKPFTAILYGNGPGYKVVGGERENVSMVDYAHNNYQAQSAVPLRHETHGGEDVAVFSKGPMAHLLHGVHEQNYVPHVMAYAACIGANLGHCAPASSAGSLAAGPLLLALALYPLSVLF
# [4] = HEK-293T viability loss after treatment – luminescence, T-cell screen hits, cytotoxicity control for TCR NF-kB inhibitor project, dose response (AID 489026); format: functional, cell-based;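 also: cells exposed to compound about 14 hours before the viability readout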
# [5] = Intein inhibitors as potential Tuberculosis drugs, a cytotoxicity screen. [Related pubchem assays (depositor defined):AID2221, AID2223, AID434968, AID435010, AID449749, AID449750, AID489010]; format: functional
# [6] = target: T3, Replicative DNA helicase DnaB (Mycobacterium tuberculosis, UniProt P9WMR3); assay: DnaB intein splicing inhibitors, dose response, biochemical, cell-free fluorescence (AID 449749); format: functional
# T3 sequence (P9WMR3 whole entry): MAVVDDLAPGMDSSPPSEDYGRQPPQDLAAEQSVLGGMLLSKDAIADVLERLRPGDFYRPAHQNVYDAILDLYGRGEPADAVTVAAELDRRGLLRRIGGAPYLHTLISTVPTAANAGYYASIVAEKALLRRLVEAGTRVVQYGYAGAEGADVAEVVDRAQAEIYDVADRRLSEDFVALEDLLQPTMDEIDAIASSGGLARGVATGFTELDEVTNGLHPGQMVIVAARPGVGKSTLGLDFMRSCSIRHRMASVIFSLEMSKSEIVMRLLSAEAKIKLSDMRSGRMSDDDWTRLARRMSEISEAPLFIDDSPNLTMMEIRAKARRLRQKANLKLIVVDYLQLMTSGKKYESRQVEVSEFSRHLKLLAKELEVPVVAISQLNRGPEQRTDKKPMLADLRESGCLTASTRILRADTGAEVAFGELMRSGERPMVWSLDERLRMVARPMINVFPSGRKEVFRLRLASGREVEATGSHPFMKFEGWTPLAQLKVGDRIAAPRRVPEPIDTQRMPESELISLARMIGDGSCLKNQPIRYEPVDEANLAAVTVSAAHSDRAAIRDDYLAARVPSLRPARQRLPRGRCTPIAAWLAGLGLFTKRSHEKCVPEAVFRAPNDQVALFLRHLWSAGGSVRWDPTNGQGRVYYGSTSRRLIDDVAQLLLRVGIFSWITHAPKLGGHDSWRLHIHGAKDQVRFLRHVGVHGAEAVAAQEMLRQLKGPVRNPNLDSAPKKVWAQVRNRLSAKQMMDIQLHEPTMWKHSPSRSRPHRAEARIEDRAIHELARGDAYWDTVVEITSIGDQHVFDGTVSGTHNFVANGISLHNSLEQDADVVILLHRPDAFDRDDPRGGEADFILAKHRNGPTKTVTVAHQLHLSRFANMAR
# Protein RecA = target: T4, Protein RecA (Mycobacterium tuberculosis, UniProt P9WHJ3); assay: Fluorescence Cell-Free Homogeneous Dose Retest to Identify Inhibitors of RecA-Intein Splicing Activity. [Related pubchem assays (depositor defined):AID2097, AID2223, AID489010, AID492950]; format: functional
# T4 sequence (P9WHJ3 whole entry): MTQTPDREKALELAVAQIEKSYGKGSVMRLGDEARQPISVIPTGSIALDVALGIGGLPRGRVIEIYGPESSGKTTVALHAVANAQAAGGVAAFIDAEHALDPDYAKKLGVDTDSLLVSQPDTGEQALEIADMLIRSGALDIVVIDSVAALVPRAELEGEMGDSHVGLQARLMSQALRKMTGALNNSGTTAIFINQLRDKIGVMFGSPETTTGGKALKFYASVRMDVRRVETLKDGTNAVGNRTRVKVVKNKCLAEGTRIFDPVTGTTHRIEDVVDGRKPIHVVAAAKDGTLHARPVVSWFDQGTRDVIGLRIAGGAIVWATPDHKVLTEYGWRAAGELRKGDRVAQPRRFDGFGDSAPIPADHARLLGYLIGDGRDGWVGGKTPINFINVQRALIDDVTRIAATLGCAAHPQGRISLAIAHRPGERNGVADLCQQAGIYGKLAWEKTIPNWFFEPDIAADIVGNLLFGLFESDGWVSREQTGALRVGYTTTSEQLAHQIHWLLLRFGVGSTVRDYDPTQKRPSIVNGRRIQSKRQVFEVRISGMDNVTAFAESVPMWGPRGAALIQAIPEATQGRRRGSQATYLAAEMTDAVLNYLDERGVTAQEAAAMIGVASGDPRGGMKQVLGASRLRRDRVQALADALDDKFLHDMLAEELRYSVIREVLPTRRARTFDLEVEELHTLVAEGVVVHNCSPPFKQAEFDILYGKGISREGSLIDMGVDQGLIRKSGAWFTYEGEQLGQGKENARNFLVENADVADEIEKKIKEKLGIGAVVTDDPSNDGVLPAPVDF
# [7] = target: T5, Type-1 angiotensin II receptor (Homo sapiens, UniProt P30556); assay: agonist activity at AGTR1 – cell-based, uHTS hits, selectivity assay for APJ receptor agonist project, dose response (AID 488865); format: functional;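 also: beta-arrestin recruitment to AT1 measured by enzyme fragment complementation luminescence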
# T5 sequence (P30556 whole entry): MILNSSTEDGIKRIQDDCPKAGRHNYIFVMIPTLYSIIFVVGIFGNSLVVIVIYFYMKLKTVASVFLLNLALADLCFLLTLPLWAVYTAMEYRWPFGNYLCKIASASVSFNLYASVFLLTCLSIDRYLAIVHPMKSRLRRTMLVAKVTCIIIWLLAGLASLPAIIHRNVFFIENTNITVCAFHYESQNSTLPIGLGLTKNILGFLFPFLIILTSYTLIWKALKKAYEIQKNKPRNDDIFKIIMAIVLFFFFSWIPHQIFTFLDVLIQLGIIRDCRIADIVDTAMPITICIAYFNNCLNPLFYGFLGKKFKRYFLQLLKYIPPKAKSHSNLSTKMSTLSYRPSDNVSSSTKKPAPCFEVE
# [8] = target: T6, Heat shock factor protein 1 (Mus musculus, UniProt P38532); assay: decrease of HSF1-responsive luciferase luminescence – cell-based, NIH3T3, dose retest, confirmation (AID 2382); format: functional;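 also: NIH3T3 fibroblasts with HSF1-driven luciferase reporter stressed by proteasome inhibitor MG132; luminescence from HSF1-driven luciferase expression after 8 hours of MG132 stress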
# T6 sequence (P38532 whole entry): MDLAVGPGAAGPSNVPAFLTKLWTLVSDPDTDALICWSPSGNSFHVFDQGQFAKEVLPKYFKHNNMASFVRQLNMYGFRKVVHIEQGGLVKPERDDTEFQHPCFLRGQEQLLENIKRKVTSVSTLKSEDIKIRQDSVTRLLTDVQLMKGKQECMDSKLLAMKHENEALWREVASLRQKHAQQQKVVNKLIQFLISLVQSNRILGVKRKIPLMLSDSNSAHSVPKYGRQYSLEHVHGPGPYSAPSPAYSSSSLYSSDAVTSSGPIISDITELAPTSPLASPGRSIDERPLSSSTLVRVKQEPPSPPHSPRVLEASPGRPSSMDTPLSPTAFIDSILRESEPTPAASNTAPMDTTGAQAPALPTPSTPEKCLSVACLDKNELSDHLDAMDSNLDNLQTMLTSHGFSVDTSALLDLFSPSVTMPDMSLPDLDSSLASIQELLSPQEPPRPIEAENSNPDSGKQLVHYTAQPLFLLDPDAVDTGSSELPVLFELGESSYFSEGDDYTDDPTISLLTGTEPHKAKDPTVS
# [9] = viability of PTEN-deleted HCT116 cells – cell-based, HCT116 PTEN knockout, dose response (AID 1047); format: functional;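 also: HCT116 colon tumor cells with PTEN knocked out; cells exposed to compound for 60 hours before readout; potency for loss of cell viability measured by luminescence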
# [10] = viability of HCT116 lacking mutant beta-catenin – cell-based, human colon tumor, dose response (AID 1045); format: functional;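 also: HCT116 colon tumor cells with beta catenin knocked out; cells exposed to compound for 60 hours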
# [11] = target: T7, Sphingosine 1-phosphate receptor 4 (Homo sapiens, UniProt O95977); assay: Fluorescence dose response cell-based high throughput screening assay for antagonists of the Sphingosine 1-Phosphate Receptor 4 (S1P4). [Related pubchem assays: 1524 (Confirmation in triplicates.), 1510 (Primary screen.)]; format: functional
# T7 sequence (O95977 whole entry): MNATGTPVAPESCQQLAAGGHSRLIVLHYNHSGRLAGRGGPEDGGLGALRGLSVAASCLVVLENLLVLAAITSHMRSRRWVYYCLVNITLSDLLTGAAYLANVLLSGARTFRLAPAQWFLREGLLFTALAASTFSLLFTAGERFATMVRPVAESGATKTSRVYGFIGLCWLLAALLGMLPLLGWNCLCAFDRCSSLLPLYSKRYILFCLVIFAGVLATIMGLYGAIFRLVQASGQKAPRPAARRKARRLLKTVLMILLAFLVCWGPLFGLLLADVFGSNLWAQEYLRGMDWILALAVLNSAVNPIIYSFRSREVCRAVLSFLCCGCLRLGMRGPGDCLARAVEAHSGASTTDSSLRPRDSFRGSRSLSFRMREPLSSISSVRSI
# [12] = target: Sphingosine 1-phosphate receptor 1 (Homo sapiens, UniProt P21453); format: functional;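 also: Tango beta-arrestin reporter U2OS cells stimulated with S1P near its EC80; inhibitor potency meaning antagonism of receptor activation by the natural agonist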
# [13] = THP-1 cell cytotoxicity, dose response, cytotoxicity control for non-replicating M. tuberculosis project (AID 489025); format: functional
# Beta-galactosidase = Beta-galactosidase (Escherichia coli, UniProt Q8VNN2); assay: detection-enzyme interference by beta-gal modulators – biochemical, E. coli enzyme, set 3, artefact control for CCR6 antagonist project, dose response (AID 504712); format: functional
# [14] = Vero E6 cell cytotoxicity, dose response, cytotoxicity control for non-replicating M. tuberculosis project, secondary assay (AID 492998); format: functional, VeroE6; settings: Vero C1008
# [15] = target: DNA damage-inducible transcript 3 protein (Mus musculus, UniProt P35639); format: functional, Cricetulus griseus
# X-box-binding protein 1 = X-box-binding protein 1 (Homo sapiens, UniProt P17861); format: functional, Cricetulus griseus;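 also: confirmatory dose-response counter-screen serving a CHOP assay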
# cells = format: functional
# HEK293 = assay: EBV LMP1 TES2 canonical NF-kB signalling blockers – cell-based, HEK293, luciferase, cherry-pick, dose response (AID 588343); format: functional; settings: Homo sapiens
# [16] = target: T7, Sphingosine 1-phosphate receptor 4; assay: Late-stage fluorescence dose response cell-based assay to identify agonists of the Sphingosine 1-Phosphate Receptor 4 (S1P4): purchased compounds EC50. [Related pubchem assays (depositor defined):AID1509, AID1523, AID1563, AID1686, AID1701, AID1801]; format: functional
# Sequence of Sphingosine 1-phosphate receptor 1 (P21453 whole entry): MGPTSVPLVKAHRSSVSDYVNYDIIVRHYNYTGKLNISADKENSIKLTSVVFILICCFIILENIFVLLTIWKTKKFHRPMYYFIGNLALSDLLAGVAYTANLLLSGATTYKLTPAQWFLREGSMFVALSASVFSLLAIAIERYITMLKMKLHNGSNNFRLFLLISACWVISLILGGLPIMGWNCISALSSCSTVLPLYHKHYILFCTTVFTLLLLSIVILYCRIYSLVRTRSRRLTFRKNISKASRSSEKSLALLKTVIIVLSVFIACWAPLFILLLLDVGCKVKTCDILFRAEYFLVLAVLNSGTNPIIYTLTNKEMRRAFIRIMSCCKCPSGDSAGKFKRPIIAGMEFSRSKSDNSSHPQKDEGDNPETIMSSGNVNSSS
# Sequence of X-box-binding protein 1 (P17861 whole entry): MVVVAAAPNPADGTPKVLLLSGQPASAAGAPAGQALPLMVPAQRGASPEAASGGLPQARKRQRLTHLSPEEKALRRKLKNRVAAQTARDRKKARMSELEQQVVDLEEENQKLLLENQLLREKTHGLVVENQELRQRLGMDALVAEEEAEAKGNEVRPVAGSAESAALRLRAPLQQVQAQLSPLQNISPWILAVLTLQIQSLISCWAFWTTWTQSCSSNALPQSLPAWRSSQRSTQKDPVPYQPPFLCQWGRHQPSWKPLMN
# Sequence of Beta-galactosidase (Q8VNN2 whole entry): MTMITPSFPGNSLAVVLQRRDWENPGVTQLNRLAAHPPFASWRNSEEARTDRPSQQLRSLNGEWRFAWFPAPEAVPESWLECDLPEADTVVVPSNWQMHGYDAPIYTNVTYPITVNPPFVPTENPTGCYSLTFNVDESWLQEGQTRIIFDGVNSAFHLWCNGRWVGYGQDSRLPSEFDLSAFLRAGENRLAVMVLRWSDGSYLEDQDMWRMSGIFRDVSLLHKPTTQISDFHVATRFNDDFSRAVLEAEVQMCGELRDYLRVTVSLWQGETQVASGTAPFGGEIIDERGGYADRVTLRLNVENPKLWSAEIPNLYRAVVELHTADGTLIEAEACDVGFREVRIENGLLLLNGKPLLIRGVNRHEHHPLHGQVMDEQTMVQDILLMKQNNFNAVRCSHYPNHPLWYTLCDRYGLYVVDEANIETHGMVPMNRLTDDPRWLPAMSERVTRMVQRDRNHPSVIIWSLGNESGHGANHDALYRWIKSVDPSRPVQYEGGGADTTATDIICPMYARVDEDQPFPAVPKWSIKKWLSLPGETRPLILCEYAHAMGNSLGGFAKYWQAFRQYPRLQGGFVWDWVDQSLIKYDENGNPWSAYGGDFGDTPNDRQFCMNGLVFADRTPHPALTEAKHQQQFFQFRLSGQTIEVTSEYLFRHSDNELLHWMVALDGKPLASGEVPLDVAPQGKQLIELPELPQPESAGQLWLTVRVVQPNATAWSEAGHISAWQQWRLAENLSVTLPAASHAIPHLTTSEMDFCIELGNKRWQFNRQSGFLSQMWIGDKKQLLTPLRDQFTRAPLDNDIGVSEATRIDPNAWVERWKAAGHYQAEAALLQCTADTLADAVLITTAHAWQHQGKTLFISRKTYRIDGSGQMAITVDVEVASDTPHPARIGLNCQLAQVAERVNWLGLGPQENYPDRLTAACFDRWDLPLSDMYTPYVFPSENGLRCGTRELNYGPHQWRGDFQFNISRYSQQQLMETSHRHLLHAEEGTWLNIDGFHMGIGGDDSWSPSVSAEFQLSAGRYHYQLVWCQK
# Sequence of Glyceraldehyde-3-phosphate dehydrogenase (P04406 whole entry): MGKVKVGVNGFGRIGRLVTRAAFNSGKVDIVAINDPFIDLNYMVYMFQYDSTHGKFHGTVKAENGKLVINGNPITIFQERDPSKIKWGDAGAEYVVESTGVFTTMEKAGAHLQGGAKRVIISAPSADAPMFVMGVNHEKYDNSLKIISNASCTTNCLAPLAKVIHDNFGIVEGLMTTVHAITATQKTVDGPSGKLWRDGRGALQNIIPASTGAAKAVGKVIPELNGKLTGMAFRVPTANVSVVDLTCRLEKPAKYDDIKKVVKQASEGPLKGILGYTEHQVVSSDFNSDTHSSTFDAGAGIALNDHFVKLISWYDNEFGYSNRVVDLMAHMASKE
# Sequence of DNA damage-inducible transcript 3 protein (P35639 whole entry): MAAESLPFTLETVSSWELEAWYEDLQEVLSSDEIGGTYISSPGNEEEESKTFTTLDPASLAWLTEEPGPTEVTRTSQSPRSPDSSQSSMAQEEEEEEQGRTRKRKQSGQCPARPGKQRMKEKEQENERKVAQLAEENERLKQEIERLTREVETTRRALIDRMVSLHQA
smiles,measurement,setting,value
COc1cccc(-c2nc3ccccc3c(=O)o2)c1,IC50,Prothrombin,6.94 µM (active)
same,IC50,Coagulation factor XII,> 50 µM (inconclusive)
CC1(C)Cc2c(C#N)c(NC3CCCCC3)nc(-c3ccco3)c2CO1,AC50,[1],5.72 µM (active)
same,EC50,T-cell,6.98 µM (active)
O=C(O)c1ccc(-c2ccccc2)[nH]1,IC50,[2],> 100 µM (not active)
same,IC50,[3],> 100 µM (inactive)
CC(C)(C)c1csc(Sc2ccc([N+](=O)[O-])cn2)n1,IC50,[4],> 80 µM (inactive)
same,CC50,[5],> 40 µM (active)
same,AC50,[6],2.54 µM (active)
same,EC50,Protein RecA,1.75 µM (active)
CCOc1cc2[nH]c(=S)n(CC3CCCN3CC)c(=O)c2cc1OCC (centres undefined),EC50,[7],> 100 µM (inactive)
O=C1c2cccc3c([N+](=O)[O-])ccc(c23)C(=O)N1c1ccccn1,EC50,[8],12.8 µM (active)
same,EC50,[9],4.17 µM (active)
same,EC50,[10],2.38 µM (active)
same,IC50,[11],0.75 µM (active)
same,IC50,[12],2.29 µM (active)
same,CC50,[13],6.16 µM (active)
same,IC50,Beta-galactosidase,> 66.6 µM (inactive)
same,CC50,[14],12.3 µM (active)
same,Absolute IC50 (CHOP),[15],10 µM
same,Absolute IC50 (XBP1),X-box-binding protein 1,10 µM
same,IC50,cells,20.3 µM (active)
same,AC50,HEK293,5.7 µM (active)
Cc1ccc(OCC(=O)Nc2cc(Cl)cc(Cl)c2)c([N+](=O)[O-])n1,EC50,[16],3.6 µM (active) and > 50 µM (inactive)
